Results on 8 compounds are retold here after US11746097B2, “LXR inverse agonists for treatment of cancer” (Saint Louis University, priority 2016, dated 2023).

For one assay, the target named is T1, human LXRα-LBD (Homo sapiens, UniProt Q13133).
T1 construct: Purified human LXRα-LBD (GST); purchased Life Technologies
T1 sequence (Q13133 209-447 limits assumed): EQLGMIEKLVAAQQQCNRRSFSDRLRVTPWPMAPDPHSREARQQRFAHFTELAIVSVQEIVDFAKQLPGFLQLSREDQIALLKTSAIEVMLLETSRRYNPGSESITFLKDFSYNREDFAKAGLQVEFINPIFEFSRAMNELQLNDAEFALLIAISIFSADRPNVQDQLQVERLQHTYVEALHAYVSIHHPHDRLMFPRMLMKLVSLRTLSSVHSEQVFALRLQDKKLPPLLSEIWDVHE
The assay can be described thus: Lantha Screen TR-FRET NR-cofactor peptide interaction assay. Type of assay: biochemical. As to the method:
Biochemical NR—Cofactor Peptide Interaction Assay (TR-FRET) Assay (Life Technologies kit). Purified human LXRα-LBD (GST), LXRβ-LBD (GST), fluoroscein (FL)-labeled peptides, terbium (TB)-labeled anti-GST tag antibody, and all buffers were purchased from Life Technologies. All LXR assays were conducted in 384-well black medium-binding polystyrene assay plates (Greiner Bio-One). Test compound stock solutions and subsequent serial dilutions were prepared at 100× the final concentration in DMSO, and then were diluted to the final assay concentration of 2× in assay buffer and dispensed into assay plates. LXR-LBDs were added to assay plates and then a mixture of FL-peptide/TB-anti-GST was added to each well containing either a test compound or DMSO control for final concentrations of 2.5 nM LXRα-LBD, 5 nM LXRβ-LBD, 10 nM TB-anti-GST, and 250 nM FL-peptide. Assay plates were protected from light and incubated with gentle shaking for 3.5 hours at room temperature. The TR-FRET ratio (520 nm/492 nm) of each assay well was measured using the Perkin Elmer EnVision plate reader. An excitation filter at 340 nm was used to excite the TB-anti-GST and emission filters 492 nm and 520 nm were used to detect terbium and fluorescein emission signals respectively. A delay of 100 μs followed by a 200 μs integration time was used to collect the time-resolved emission signals.
The assay is identical except we use His-tagged LXR (made in house) and TB-labeled anti-His antibody (Life Technologies). FL-labeled peptides (Life Technologies) are: • NCOR-ID1 NCOR-ID2 SMRT SRC1-2 SRC2-3 TRAP/DRIP
For orientation: Time-resolved FRET reads energy transfer from a long-lived donor to a nearby acceptor.

Assay [1] has as its system lung and breast tumor bearing mice. The assay can be described thus: Tumor specific immune response in tumor bearing mice (FIG. 1B). The assay is classed as in vivo.
The subject of the next assay is dendritic cell. In words: Cultured dendritic cell chemokine expression (FIG. 1A). Type of assay: cell-based. Conditions: cultured dendritic cells.

The structures appear in SMILES notation.

Broadly, the IC50 is the concentration that inhibits the measured activity by half. Consider `COC(=O)C1Cc2cc(-c3cccc(S(C)(=O)=O)c3)ccc2CN1S(=O)(=O)c1c(C)cc(C)cc1C` (stereo not shown) [Compound 3, methyl 2-(mesitylsulfonyl)-6-(3-(methylsulfonyl)phenyl)-1,2,3,4-tetrahydroisoquinoline-3-carboxylate], for which, at human LXRα-LBD, the 50% inhibitory concentration (IC50) stood at 5 µM. In other words, the single-digit micromolar range.
Same read-out and setting: the same measure for `Cc1cc(C)c(S(=O)(=O)N2Cc3ccc(-c4cccc(S(C)(=O)=O)c4)cc3CC2C(=O)NCc2ccc(C#N)cc2)c(C)c1` (stereo not shown) [Compound 5, N-(4-cyanobenzyl)-2-(mesitylsulfonyl)-6-(3-(methylsulfonyl)phenyl)-1,2,3,4 tetrahydroisoquinoline-3-carboxamide]: 8.3 µM; for `Cc1cc(C)c(S(=O)(=O)N2Cc3ccc(-c4cccc(S(C)(=O)=O)c4)cc3CC2C(=O)NCc2cccc(C#N)c2)c(C)c1` (stereo not shown) [Compound 12]: 0.02 µM; for `Cc1cc(C)c(S(=O)(=O)N2Cc3ccc(-c4cccc(S(C)(=O)=O)c4)cc3CC2C(=O)NCCc2cccc(C#N)c2)c(C)c1` (stereo not shown) [Compound 14]: 2.1 µM.
The same measure, in the same setting: under `Cc1cc(C)c(S(=O)(=O)N2Cc3ccccc3CC2C(=O)NCCc2cccc(C#N)c2)c(C)c1` (stereo not shown) [Compound 38] stands 0.661 µM.
Same read-out and setting: under `COc1ccc(-c2ccc3nc(NS(=O)(=O)c4c(C)cc(C)cc4C)ccc3c2)cc1` [Compound 104] stands 4.3 µM; under `O=C(Nc1ccc2cc(Br)ccc2n1)c1cccc(Cl)c1` [Compound 113], 5.2 µM.
Regarding `Cc1cc(C)c(S(=O)(=O)N(CCc2cccc(Br)c2)Cc2ccc(-c3cccc(S(C)(=O)=O)c3)cc2)c(C)c1` [SR9243], in assay [1], the “cytotoxic T-cell activity” value is recorded as “induces” and the dendritic cell activity result is “induces”. Moreover, the “inhibition of dendritic cell chemokine expression by LXR agonists and tumor specific LXR ligands” value in the assay with dendritic cell is reported as “disrupted”.
